Common to all, as to assay: Test A pre-/postemergence greenhouse herbicide test, visual injury rating 0-100
Holding throughout (assay type): in vivo

The subject of assay [1] is barnyardgrass (Echinochloa crus-galli). From the text:
(§1) Seeds of plant species selected from barnyardgrass (Echinochloa crus-galli), large (Lg) crabgrass (Digitaria sanguinalis), giant foxtail (Setaria faberii), morningglory (Ipomoea spp.), pigweed (Amaranthus retroflexus), velvetleaf (Abutilon theophrasti), wheat (Triticum aestivum), and corn (Zea mays) were planted into a blend of loam soil and sand and treated preemergence with a directed soil spray using test chemicals formulated in a non-phytotoxic solvent mixture which included a surfactant. At the same time these species were also treated with postemergence applications of test chemicals formulated in the same manner. Plants ranged in height from 2 to 10 cm and were in the one- to two-leaf stage for the postemergence treatment. Treated plants and untreated controls were maintained in a greenhouse for approximately 10 days, after which time all treated plants were compared to untreated controls and visually evaluated for injury. Plant response ratings, summarized in Table A, are based on a 0 to 100 scale where 0 is no effect and 100 is complete control. A dash (-) response means no test result.

The test system of assay [2] is morningglory (Ipomoea spp.).
Excerpt: as §1

Assay [3] relates to wheat (Triticum aestivum).
Excerpt: as §1

The test system of assay [4] is velvetleaf (Abutilon theophrasti).
Excerpt: as §1

Assay [5] deals with giant foxtail (Setaria faberii).
Excerpt: as §1

In assay [6] the test system is large (Lg) crabgrass (Digitaria sanguinalis).
Excerpt: as §1

For the next assay, the system named is corn (Zea mays).
Excerpt: as §1

Assay [7] deals with pigweed (Amaranthus retroflexus).
Excerpt: as §1

As to `Clc1cc(Cl)cc(-c2n[nH]cc2C(=NNc2ccccc2)c2ccccc2)c1` [Compound 33], the “Plant response rating (0 to 100 scale), Barnyardgrass” value is 0 in assay [1] (Postemergence, 1000 g ai/ha) and 0 in assay [1] (Preemergence, 1000 g ai/ha). For the same compound, the “Plant response rating (0 to 100 scale), Morningglory” value in assay [2] (Postemergence, 1000 g ai/ha) is on record as 0; in assay [2] (Preemergence, 1000 g ai/ha), 0. Further, the “Plant response rating (0 to 100 scale), Wheat” value was 0 in assay [3] (Postemergence, 1000 g ai/ha) and 0 in assay [3] (Preemergence, 1000 g ai/ha). In addition, the “Plant response rating (0 to 100 scale), Velvetleaf” value is on record as 100 in assay [4] (Postemergence, 1000 g ai/ha) and 80 in assay [4] (Preemergence, 1000 g ai/ha). The “Plant response rating (0 to 100 scale), Foxtail, Giant” value in assay [5] (Postemergence, 1000 g ai/ha) was 0; in assay [5] (Preemergence, 1000 g ai/ha) it was 0. In addition, the “Plant response rating (0 to 100 scale), Crabgrass, Large” value amounted to 0 in assay [6] (Postemergence, 1000 g ai/ha) and 0 in assay [6] (Preemergence, 1000 g ai/ha). For the same compound, the “Plant response rating (0 to 100 scale), Corn” value in the assay on corn (Zea mays) (Postemergence, 1000 g ai/ha) is 0; with corn (Zea mays) (Preemergence, 1000 g ai/ha), 0. The “Plant response rating (0 to 100 scale), Pigweed” value in assay [7] (Postemergence, 1000 g ai/ha) turned out to be 100; in assay [7] (Preemergence, 1000 g ai/ha) it was 100.
`CON=C(c1ccccc1)c1c[nH]nc1-c1cc(Cl)cc(Cl)c1` [Compound 64]: the “Plant response rating (0 to 100 scale), Barnyardgrass” value in assay [1] (Postemergence, 1000 g ai/ha) is listed as 0; in assay [1] (Preemergence, 1000 g ai/ha), 0. For the same compound, the “Plant response rating (0 to 100 scale), Morningglory” value in assay [2] (Postemergence, 1000 g ai/ha) stood at 0; in assay [2] (Preemergence, 1000 g ai/ha), 0. The “Plant response rating (0 to 100 scale), Wheat” value in assay [3] (Postemergence, 1000 g ai/ha) stood at 0; in assay [3] (Preemergence, 1000 g ai/ha), 0. Moreover, the “Plant response rating (0 to 100 scale), Velvetleaf” value in assay [4] (Postemergence, 1000 g ai/ha) worked out at 80; in assay [4] (Preemergence, 1000 g ai/ha), 0. The “Plant response rating (0 to 100 scale), Foxtail, Giant” value in assay [5] (Postemergence, 1000 g ai/ha) worked out at 0; in assay [5] (Preemergence, 1000 g ai/ha) it was 0. In addition, the “Plant response rating (0 to 100 scale), Crabgrass, Large” value in assay [6] (Postemergence, 1000 g ai/ha) came to 0; in assay [6] (Preemergence, 1000 g ai/ha), 0. Besides, the “Plant response rating (0 to 100 scale), Corn” value is given as 0 with corn (Zea mays) (Postemergence, 1000 g ai/ha) and 0 in the assay on corn (Zea mays) (Preemergence, 1000 g ai/ha). The “Plant response rating (0 to 100 scale), Pigweed” value is listed as 80 in assay [7] (Postemergence, 1000 g ai/ha) and 0 in assay [7] (Preemergence, 1000 g ai/ha).
Take `CON=C(c1ccccc1)c1c[nH]nc1-c1cc(Br)cc(Br)c1` [Compound 29]: the “Plant response rating (0 to 100 scale), Barnyardgrass” value in assay [1] (Postemergence, 1000 g ai/ha) turned out to be 0; in assay [1] (Preemergence, 1000 g ai/ha), 0. The “Plant response rating (0 to 100 scale), Morningglory” value was determined as 0 in assay [2] (Postemergence, 1000 g ai/ha) and 0 in assay [2] (Preemergence, 1000 g ai/ha). Moreover, the “Plant response rating (0 to 100 scale), Wheat” value in assay [3] (Postemergence, 1000 g ai/ha) came out at 0; in assay [3] (Preemergence, 1000 g ai/ha), 0. In addition, the “Plant response rating (0 to 100 scale), Velvetleaf” value in assay [4] (Postemergence, 1000 g ai/ha) is recorded as 90; in assay [4] (Preemergence, 1000 g ai/ha) it was 70. Besides, the “Plant response rating (0 to 100 scale), Foxtail, Giant” value is 10 in assay [5] (Postemergence, 1000 g ai/ha) and 0 in assay [5] (Preemergence, 1000 g ai/ha). In addition, the “Plant response rating (0 to 100 scale), Crabgrass, Large” value stood at 0 in assay [6] (Postemergence, 1000 g ai/ha) and 0 in assay [6] (Preemergence, 1000 g ai/ha). In addition, the “Plant response rating (0 to 100 scale), Corn” value is on record as 0 in the assay with corn (Zea mays) (Postemergence, 1000 g ai/ha) and 0 with corn (Zea mays) (Preemergence, 1000 g ai/ha). For the same compound, the “Plant response rating (0 to 100 scale), Pigweed” value in assay [7] (Postemergence, 1000 g ai/ha) is recorded as 90; in assay [7] (Preemergence, 1000 g ai/ha), 40.
For `CON=C(c1cccs1)c1c[nH]nc1-c1cc(Cl)cc(Cl)c1` [Compound 32], the “Plant response rating (0 to 100 scale), Barnyardgrass” value in assay [1] (Postemergence, 125 g ai/ha) amounted to 0; in assay [1] (Postemergence, 500 g ai/ha), 0; in assay [1] (Preemergence, 500 g ai/ha) it was 0. Also, the “Barnyardgrass plant response rating (0 = no effect, 100 = complete control)” value in assay [1] (Preemergence, 125 g ai/ha) worked out at 0. Moreover, the “Plant response rating (0 to 100 scale), Morningglory” value in assay [2] (Postemergence, 125 g ai/ha) is 0; in assay [2] (Postemergence, 500 g ai/ha) it was 0; in assay [2] (Preemergence, 500 g ai/ha), 0. For the same compound, the “Morningglory plant response rating (0 = no effect, 100 = complete control)” value in assay [2] (Preemergence, 125 g ai/ha) came to 0. Also, the “Plant response rating (0 to 100 scale), Wheat” value in assay [3] (Postemergence, 125 g ai/ha) is given as 0; in assay [3] (Postemergence, 500 g ai/ha) it was 0; in assay [3] (Preemergence, 500 g ai/ha), 0. Besides, the “Wheat plant response rating (0 = no effect, 100 = complete control)” value in assay [3] (Preemergence, 125 g ai/ha) was 0. Besides, the “Plant response rating (0 to 100 scale), Velvetleaf” value in assay [4] (Postemergence, 125 g ai/ha) is given as 60; in assay [4] (Postemergence, 500 g ai/ha), 70; in assay [4] (Preemergence, 500 g ai/ha), 0. In assay [4] (Preemergence, 125 g ai/ha), the “Velvetleaf plant response rating (0 = no effect, 100 = complete control)” value turned out to be 0. Further, the “Plant response rating (0 to 100 scale), Foxtail, Giant” value is given as 0 in assay [5] (Postemergence, 125 g ai/ha); 0 in assay [5] (Postemergence, 500 g ai/ha); 0 in assay [5] (Preemergence, 500 g ai/ha). For the same compound, the “Foxtail, Giant plant response rating (0 = no effect, 100 = complete control)” value in assay [5] (Preemergence, 125 g ai/ha) worked out at 0. In addition, the “Plant response rating (0 to 100 scale), Crabgrass, Large” value came to 0 in assay [6] (Postemergence, 125 g ai/ha); 0 in assay [6] (Postemergence, 500 g ai/ha); 0 in assay [6] (Preemergence, 500 g ai/ha). In addition, in assay [6] (Preemergence, 125 g ai/ha), the “Crabgrass, Large plant response rating (0 = no effect, 100 = complete control)” value is 0. Moreover, the “Plant response rating (0 to 100 scale), Corn” value in the assay with corn (Zea mays) (Postemergence, 125 g ai/ha) was 0; in the assay with corn (Zea mays) (Postemergence, 500 g ai/ha) it was 0; in the assay with corn (Zea mays) (Preemergence, 500 g ai/ha), 0. The “Corn plant response rating (0 = no effect, 100 = complete control)” value in the assay on corn (Zea mays) (Preemergence, 125 g ai/ha) is given as 0. Besides, the “Plant response rating (0 to 100 scale), Pigweed” value amounted to 0 in assay [7] (Postemergence, 125 g ai/ha) and 60 in assay [7] (Postemergence, 500 g ai/ha). The “Pigweed plant response rating (0 = no effect, 100 = complete control)” value in assay [7] (Preemergence, 125 g ai/ha) stood at 0.

For the origin of these results see patent US10167262B2, “Herbicidal substituted 3-arylpyrazoles” (FMC CORPORATION, priority 2014, dated 2019).
